# Measurements taken from PMC10940605, “Design, synthesis and in vitro anticancer activity of some new lomefloxacin derivatives” (Scientific Reports, 2024).
# Key:
# [1] = tested on: 60 human cancer cell lines; test: NCI-60 SRB screen, whole panel; assay type: cell-based; details: Homo sapiens, 48 h; One Dose Mean Graph, Conc 1.00E-5 Molar; read-out: Mean Growth Percent
# U251 = test: NCI-60 SRB screen; assay type: cell-based; details: Homo sapiens, U-251; U251, 10^–5 Molar; read-out: Percent growth inhibition
# Procedure: (§1) All newly synthesized compounds were selected and screened for anticancer activity against 60 human cancer cell lines representing 9 types of tumors including leukemia, melanoma, lung, colon, CNS, ovarian, renal, prostate, and breast cancers at the National Cancer Institute (NCI), Bethesda, USA. Screening was performed utilizing a single dose (10^−5 M concentration) and cells were incubated for 48 h. The end point was determined using sulforhodamine B (SRB) dye.
# (§2) In this study, all the 16 newly synthesized compounds were submitted to the National Cancer Institute (USA) for anticancer evaluation and were selected and evaluated using 60 different human tumor cell lines representing lung, colon, CNS, ovarian, renal, prostate, breast cancers as well as leukemia and melanoma. A single dose (10^–5 Molar) was used for the initial screening for evaluation of anticancer activity. The 60 human cancer cell lines were provided by the national cancer institute biomedical research campus in Frederick, Maryland.
# (§3) 60 different human cancer cell lines were utilized to screen the newly synthesized compounds for anticancer activity according to the previously reported standard procedure[24]–[26] as follows: • 96 well microtiter plates were used to inoculate the cells at […] ranging from 4000–5000 cells/well depending on the replication time of individual cell lines. Roswell Park Memorial Institute culture medium (RPMI 1640 medium) containing 2 mM L-glutamine and fetal bovine serum was used to grow the cells at 37 °C, 5% CO2, 95% air and 100% relative humidity for 24 h. • Fixation of cells in two plates of each cell line in situ was done using trichloroacetic acid (TCA). This represented the measurement of cell population at the time of drug addition (Tz). • Dimethyl sulfoxide (DMSO) was used to dissolve the synthesized compounds at 400-fold the desired final maximum concentration and frozen prior to use. This frozen concentrate was melted and diluted to twice the final concentration with complete medium containing 50 µg/mL gentamycin at time of drug addition. • The final compound concentration was obtained by adding 100 µL of the synthesized compounds to the appropriate microtiter wells already containing 100 µL followed by incubation of the plates at 37 °C, 5% CO2, 95% air and 100% relative humidity for 48 h. • Fixation of the cells was achieved by gentle addition of 50 µL of cold 50% (w/v) TCA followed by incubation for 60 min at 4 °C. The supernatant was then discarded and the plates are washed 5 times with tap water and air dried. • Sulphorhodamine B (SRB) solution (100 µL) at 0.4% (w/v) in 1% acetic acid was added to each plate followed by incubation for 10 min at room temperature. The unbound dye was then removed by washing five times with 1% acetic acid and plates were air dried. • Dissolution of the bound stain was done using […] trizma base and the absorbance was read at […] wavelength using an automated plate reader. • The percentage growth inhibition was calculated as follows: Ti-Tz/C-Tz×100forconcentrationswhichTi≥Tz Ti-Tz/Tz×100forconcentrationswhichTi<Tz • Time zero (Tz) • Control growth (C) • Test growth in the presence of drug (Ti)
# MDA-MB-435 = test: NCI-60 SRB screen; assay type: cell-based; details: Homo sapiens; MDA-MB-435, 10^–5 Molar; read-out: Percent growth inhibition
# Procedure: as §1, §2, §3
# M14 = test: NCI-60 SRB screen; assay type: cell-based; details: Homo sapiens; M14, 10^–5 Molar; read-out: Percent growth inhibition
# Procedure: as §1, §2, §3
# MALME-3M = test: NCI-60 SRB screen; assay type: cell-based; details: Homo sapiens, 10^–5 Molar, read-out: Percent growth inhibition
# Procedure: as §1, §2, §3
# NCI-H23 = test: NCI-60 SRB screen; assay type: cell-based; details: Homo sapiens; NCI-H23, 10^–5 Molar; read-out: Percent growth inhibition
# Procedure: as §1, §2, §3
# MCF7 = test: NCI-60 SRB screen; assay type: cell-based; details: Homo sapiens; MCF7, 10^–5 Molar; read-out: Percent growth inhibition
# Procedure: as §1, §2, §3
# SF-539 = test: NCI-60 SRB screen; assay type: cell-based; details: Homo sapiens; SF-539, 10^–5 Molar; read-out: Percent growth inhibition
# Procedure: as §1, §2, §3
# ACHN = test: NCI-60 SRB screen; assay type: cell-based; details: Homo sapiens, 10^–5 Molar, read-out: Percent growth inhibition
# Procedure: as §1, §2, §3
# SNB-75 = test: NCI-60 SRB screen; assay type: cell-based; details: Homo sapiens; SNB-75, 10^–5 Molar; read-out: Percent growth inhibition
# Procedure: as §1, §2, §3
# 786-0 = test: NCI-60 SRB screen; assay type: cell-based; details: Homo sapiens; 786-0, 10^–5 Molar; read-out: Percent growth inhibition
# Procedure: as §1, §2, §3
# LOX IMVI = test: NCI-60 SRB screen; assay type: cell-based; details: Homo sapiens, 10^–5 Molar, read-out: Percent growth inhibition
# Procedure: as §1, §2, §3
# OVCAR-8 = test: NCI-60 SRB screen; assay type: cell-based; details: Homo sapiens; OVCAR-8, 10^–5 Molar; read-out: Percent growth inhibition
# Procedure: as §1, §2, §3
# HS 578T = test: NCI-60 SRB screen; assay type: cell-based; details: Homo sapiens, 10^–5 Molar, read-out: Percent growth inhibition
# Procedure: as §1, §2, §3
# MDA-MB-231/ATCC = test: NCI-60 SRB screen; assay type: cell-based; details: Homo sapiens, 10^–5 Molar, read-out: Percent growth inhibition
# Procedure: as §1, §2, §3
# SK-MEL-28 = test: NCI-60 SRB screen; assay type: cell-based; details: Homo sapiens; SK-MEL-28, 10^–5 Molar; read-out: Percent growth inhibition
# Procedure: as §1, §2, §3
# UACC-62 = test: NCI-60 SRB screen; assay type: cell-based; details: Homo sapiens; UACC-62, 10^–5 Molar; read-out: Percent growth inhibition
# Procedure: as §1, §2, §3
# CAKI-1 = test: NCI-60 SRB screen; assay type: cell-based; details: Homo sapiens; CAKI-1, 10^–5 Molar; read-out: Percent growth inhibition
# Procedure: as §1, §2, §3
# UO-31 = test: NCI-60 SRB screen; assay type: cell-based; details: Homo sapiens; UO-31, 10^–5 Molar; read-out: Percent growth inhibition
# Procedure: as §1, §2, §3
# BT-549 = test: NCI-60 SRB screen; assay type: cell-based; details: Homo sapiens; BT-549, 10^–5 Molar; read-out: Percent growth inhibition
# Procedure: as §1, §2, §3
# OVCAR-5 = test: NCI-60 SRB screen; assay type: cell-based; details: Homo sapiens; OVCAR-5, 10^–5 Molar; read-out: Percent growth inhibition
# Procedure: as §1, §2, §3
# PC-3 = test: NCI-60 SRB screen; assay type: cell-based; details: Homo sapiens; PC-3, 10^–5 Molar; read-out: Percent growth inhibition
# Procedure: as §1, §2, §3
# K-562 = test: NCI-60 SRB screen; assay type: cell-based; details: Homo sapiens, K562; K-562, 10^–5 Molar; read-out: Percent growth inhibition
# Procedure: as §1, §2, §3
# NCI-H322M = test: NCI-60 SRB screen; assay type: cell-based; details: Homo sapiens, 10^–5 Molar, read-out: Percent growth inhibition
# Procedure: as §1, §2, §3
# NCI-H522 = test: NCI-60 SRB screen; assay type: cell-based; details: Homo sapiens; NCI-H522, 10^–5 Molar; read-out: Percent growth inhibition
# Procedure: as §1, §2, §3
# MDA-MB-468 = test: NCI-60 SRB screen; assay type: cell-based; details: Homo sapiens; MDA-MB-468, 10^–5 Molar; read-out: Percent growth inhibition
# Procedure: as §1, §2, §3
# OVCAR-4 = test: NCI-60 SRB screen; assay type: cell-based; details: Homo sapiens; OVCAR-4, 10^–5 Molar; read-out: Percent growth inhibition
# Procedure: as §1, §2, §3
# SF-268 = test: NCI-60 SRB screen; assay type: cell-based; details: Homo sapiens; SF-268, 10^–5 Molar; read-out: Percent growth inhibition
# Procedure: as §1, §2, §3
# SF-295 = test: NCI-60 SRB screen; assay type: cell-based; details: Homo sapiens; SF-295, 10^–5 Molar; read-out: Percent growth inhibition
# Procedure: as §1, §2, §3
# A498 = test: NCI-60 SRB screen; assay type: cell-based; details: Homo sapiens; A498, 10^–5 Molar; read-out: Percent growth inhibition
# Procedure: as §1, §2, §3
# SN12C = test: NCI-60 SRB screen; assay type: cell-based; details: Homo sapiens, 10^–5 Molar, read-out: Percent growth inhibition
# Procedure: as §1, §2, §3
# HCT-15 = test: NCI-60 SRB screen; assay type: cell-based; details: Homo sapiens; HCT-15, 10^–5 Molar; read-out: Percent growth inhibition
# Procedure: as §1, §2, §3
smiles,measurement,setting,value
"CCn1cc(C(=O)O)c(=O)c2cc(F)c(N3CCN(CC(=O)Nc4ccc(OC)cc4)C(C)C3)c(F)c21 (stereo not shown) [Compound 5c, 1-Ethyl-6,8-difluoro-7-(4-(2-((4-methoxyphenyl)amino)-2-oxoethyl)-3-methylpiperazin-1-yl)-4-oxo-1,4-dihydroquinoline-3-carboxylic acid]",activity at 10 µM,[1],98.8%
same,inhibition at 10 µM,U251,0.32%
same,inhibition at 10 µM,MDA-MB-435,6.19%
same,inhibition at 10 µM,M14,2.85%
same,inhibition at 10 µM,MALME-3M,3.82%
same,inhibition at 10 µM,NCI-H23,0.84%
same,inhibition at 10 µM,MCF7,1.91%
same,inhibition at 10 µM,SF-539,3.21%
same,inhibition at 10 µM,ACHN,0.45%
same,inhibition at 10 µM,SNB-75,12.8%
same,inhibition at 10 µM,786-0,4.78%
same,inhibition at 10 µM,LOX IMVI,14%
same,inhibition at 10 µM,OVCAR-8,3.62%
same,inhibition at 10 µM,HS 578T,8.53%
same,inhibition at 10 µM,MDA-MB-231/ATCC,13.7%
same,inhibition at 10 µM,SK-MEL-28,5.79%
same,inhibition at 10 µM,UACC-62,12.6%
same,inhibition at 10 µM,CAKI-1,11.4%
same,inhibition at 10 µM,UO-31,19.1%
same,inhibition at 10 µM,BT-549,3.31%
same,inhibition at 10 µM,OVCAR-5,0.25%
same,inhibition at 10 µM,PC-3,4.07%
same,inhibition at 10 µM,K-562,5.75%
same,inhibition at 10 µM,NCI-H322M,5.28%
same,inhibition at 10 µM,NCI-H522,6.89%
same,inhibition at 10 µM,MDA-MB-468,3.75%
same,inhibition at 10 µM,OVCAR-4,8.21%
same,inhibition at 10 µM,SF-268,8.23%
same,inhibition at 10 µM,SF-295,2%
same,inhibition at 10 µM,A498,24.1%
same,melting point,,196 to 198 °C
"CCn1cc(C(=O)O)c(=O)c2cc(F)c(N3CCN(CC(=O)Nc4ccc(S(=O)(=O)Nc5ncccn5)cc4)C(C)C3)c(F)c21 (stereo not shown) [Compound 5e, 1-Ethyl-6,8-difluoro-7-(3-methyl-4-(2-oxo-2-((4-(N-(pyrimidin-2-yl)sulfamoyl)phenyl)amino)ethyl)piperazin-1-yl)-4-oxo-1,4-dihydroquinoline-3-carboxylic acid]",activity at 10 µM,[1],106%
same,inhibition at 10 µM,SN12C,3.07%
same,inhibition at 10 µM,MCF7,5.24%
same,inhibition at 10 µM,HCT-15,2.43%
same,inhibition at 10 µM,SNB-75,6.39%
same,inhibition at 10 µM,HS 578T,2.04%
same,inhibition at 10 µM,UACC-62,7.88%
same,inhibition at 10 µM,CAKI-1,7.59%
same,inhibition at 10 µM,UO-31,9.64%
same,inhibition at 10 µM,K-562,1.07%
same,inhibition at 10 µM,SF-268,1.55%
same,melting point,,282 to 284 °C
